Experimental data as given in patent publication US20110014273A1, “Method of Treating BCC” (priority 2009, published 2011).
≈ marks a conversion by molar mass, not a printed value.

Tests used:
[1] = test system: P. aeruginosa MMX 1609; experiment: Susceptibility testing (MIC at 35° C.); assay type: cell-based; conditions: Pseudomonas aeruginosa, MMX1609
Description: (§1) From a previous susceptibility testing experiment, the liposomal test batches and control tobramycin MIC values are shown in Table 5 below. The time-kill test is conducted using the test agents shown in bold print in Table 5: [table]

[2] = test system: P. aeruginosa ATCC 27853; experiment: Susceptibility testing (MIC at 35° C.); assay type: cell-based; conditions: Pseudomonas aeruginosa, ATCC27853
Description: as §1

[3] = test system: B. cepacia ATCC 25608; experiment: Susceptibility testing (MIC at 35° C.); assay type: cell-based; conditions: Burkholderia cepacia, ATCC25608
Description: as §1

[4] = test system: P. aeruginosa MMX 1609; conditions: at 35° C.; cited from earlier work
[5] = test system: P. aeruginosa ATCC 27853; conditions: at 35° C.; cited from earlier work
[6] = test system: B. cepacia ATCC 25608; conditions: at 35° C.; cited from earlier work

**Q.** Which MIC [1] does the source give for `NC[C@H]1O[C@H](O[C@H]2[C@H](O)[C@@H](O[C@H]3O[C@H](CO)[C@@H](O)[C@H](N)[C@H]3O)[C@H](N)C[C@@H]2N)[C@H](N)C[C@@H]1O` [Free tobramycin (Sigma), tobramycin] here?
**A.** 0.5 µg/mL (≈ 1.07 µM)

**Q.** What about the MIC [2] of the same compound?
**A.** 0.5 µg/mL (≈ 1.07 µM)

**Q.** And the MIC [3]?
**A.** > 64 µg/mL

**Q.** What does the source list for `NC[C@H]1O[C@H](O[C@H]2[C@H](O)[C@@H](O[C@H]3O[C@H](CO)[C@@H](O)[C@H](N)[C@H]3O)[C@H](N)C[C@@H]2N)[C@H](N)C[C@@H]1O` [tobramycin]?
**A.** MIC, CLSI QC range [4]: (0.25-1) μg/mL; MIC, CLSI QC range [5]: 0.25 to 1 µg/mL; MIC, CLSI QC range [6]: (0.12-1) μg/mL
